Measured values as given in US11377632B2, “Production method for bacterial cells” (IDEMITSU KOSAN CO., LTD., priority 2017, dated 2022).

System: Bacillus subtilis ITB 105 strain (NITE BP-01727)
Test: Three-stage liquid culture with streptomycin added; colony count (CFU) and abnormal colony morphology on agar
Type: cell-based
Conditions: for Appearance (%) of abnormal colonies / CFU / Number of abnormal colonies / Number of normal colonies: third stage, 30 hour
Protocol: Using a 500 mL Erlenmeyer flask (with a baffle), 100 mL each of liquid medium containing the components of the medium listed in Table 1 was prepared, and then autoclave sterilization was performed. In order to avoid the Maillard reaction, glucose was separately sterilized and mixed aseptically.
The test sections were set as described in Table 2. According to the conditions for each test section, an aqueous solution of filter-sterilized streptomycin was aseptically added to the medium.
One platinum loop was taken from a colony of Bacillus subtilis ITB 105 strain (NITE BP-01727) grown on a common agar medium and inoculated, and then shake culture was performed at 30° C. and 150 rpm (first stage). Eighteen hours later, 1 mL of each culture solution was aliquoted and transferred to a fresh medium, and then shaking culture was performed in the same manner (second stage). After 24 hours, 1 mL of each culture solution was aliquoted and then transferred to a fresh medium, and then shaking culture was performed in the same manner (third stage). The third-stage culture solution was sampled after 30 hours.
The resulting culture solutions were each diluted 1×10^7 folds with sterile water, and 100 μL of the diluted solution was applied to a common agar medium and then cells were cultured overnight at 37° C. The number of colonies that had appeared was determined to calculate CFU. Colonies that had appeared and clearly differed in colony morphology compared with the parent strain on the basis of the criteria in Table 3 were determined as abnormal colonies and the number of the abnormal appearing colonies was determined and then the proportion thereof in the total number of colonies was calculated. As a result, in the three-stage culture, abnormal appearing colonies accounted for about 5% when no antibiotic was added.

[1] = Test section No. 2: streptomycin 5 ppm in first and second stage, none in third
[2] = Test section No. 3: streptomycin 10 ppm in first and second stage, none in third
[3] = Test section No. 4: streptomycin 15 ppm in first and second stage, none in third
[4] = Test section No. 5: streptomycin 20 ppm in first and second stage, none in third
[5] = Test section No. 6: streptomycin 30 ppm in first and second stage, none in third
[6] = Test section No. 7: streptomycin 30 ppm in first, second and third stage
[7] = streptomycin added in all of the first, second and third stages

## [H]/N=C(/N)N[C@H]1[C@H](O)[C@@H](O)[C@H](O[C@@H]2O[C@@H](C)[C@](O)(C=O)[C@H]2O[C@@H]2O[C@@H](CO)[C@H](O)[C@@H](O)[C@@H]2NC)[C@@H](N/C(N)=N\[H])[C@@H]1O [Streptomycin, streptomycin]
[1]
  Appearance (%) of abnormal colonies: 0.0%
  CFU: 8.8e+09 mL⁻¹
  Number of abnormal colonies: 0
  Number of normal colonies: 88
[2]
  Appearance (%) of abnormal colonies: 0.0%
  CFU: 1.09e+10 mL⁻¹
  Number of abnormal colonies: 0
  Number of normal colonies: 109
[3]
  Appearance (%) of abnormal colonies: 0.0%
  CFU: 7e+09 mL⁻¹
  Number of abnormal colonies: 0
  Number of normal colonies: 70
[4]
  Appearance (%) of abnormal colonies: 0.0%
  CFU: 8.2e+09 mL⁻¹
  Number of abnormal colonies: 0
  Number of normal colonies: 82
[5]
  Appearance (%) of abnormal colonies: 0.0%
  CFU: 6.3e+09 mL⁻¹
  Number of abnormal colonies: 0
  Number of normal colonies: 63
[6]
  Appearance (%) of abnormal colonies: 0.0%
  CFU: 4.9e+09 mL⁻¹
  Number of abnormal colonies: 0
  Number of normal colonies: 49
[7]
  Appearance of abnormal colonies: no abnormal colony appeared
  Number of appearing colonies and number of normal appearing colonies: low
Streptomycin added in all of the first, second and third stages, compared with Test section Nos. 2 to 6
  Productivity of bacterial cells: lower than those of Test section Nos. 2 to 6
Streptomycin added in the first and second stages, none in the third stage
  Appearance of abnormal colonies: no appearance of abnormal colonies was observed
